Data: EP0259014A2, “5-Deoxy-5-fluorokanamycin B derivatives and processes for the production thereof” (ZAIDAN HOJIN BISEIBUTSU KAGAKU KENKYU KAI, priority 1986, dated 1988)
Converted amounts (≈) assume the structure as drawn. Like-named read-outs stand apart in the source and are kept apart here.

How the values were obtained:
Format in all cases: cell-based
[1] = test system: Klebsiella pneumoniae 22#3038; assay: MIC, serial dilution on Mueller Hinton agar; conditions: Klebsiella pneumoniae 22#3038, resistance mechanism APH(3')-II, ANT(2"), 37°C, 18 hours
Description: The antibacterial spectra so determined of the new compounds No. 1 to No. 13 (each in the form of the free base) of this invention are as shown in Table 1 below.

[2] = test system: Escherichia coli K-12 LA 290 R55; assay: MIC, serial dilution on Mueller Hinton agar; conditions: for MIC: Escherichia coli, K12LA290R55, 18 h
Mycobacterium 607 = assay: MIC, serial dilution on Mueller Hinton agar; conditions: Mycobacterium 607; Mueller Hinton agar, 37°C, incubated for 40 hours; read-out: MIC.
Escherichia coli K-12 = assay: MIC, serial dilution on Mueller Hinton agar; conditions: K12; Escherichia coli K-12; Mueller Hinton agar, 37°C, 18 hours; read-out: MIC.
Escherichia coli K-12 R5 = assay: MIC, serial dilution on Mueller Hinton agar; conditions: K12R5, 18 h
[3] = test system: Pseudomonas aeruginosa A3; assay: MIC, serial dilution on Mueller Hinton agar; conditions: Pseudomonas aeruginosa A3; Mueller Hinton agar, 37°C, 18 hours; read-out: MIC.
Bacillus subtilis PCI219 = assay: MIC, serial dilution on Mueller Hinton agar; conditions: Bacillus subtilis PCI219; Mueller Hinton agar, 37°C, 18 hours; read-out: MIC.
Proteus rettgeri GN 311 = assay: MIC, serial dilution on Mueller Hinton agar; conditions: Providencia rettgeri, GN311; Proteus rettgeri GN 311; Mueller Hinton agar, 37°C, 18 hours; read-out: MIC.
Escherichia coli JR225 = assay: microbe, parasite or virus in culture; conditions: for MIC: Escherichia coli, JR225, 18 h
[4] = test system: Staphylococcus aureus 209P; assay: MIC, serial dilution on Mueller Hinton agar; conditions: Staphylococcus aureus 209P; Mueller Hinton agar, 37°C, 18 hours; read-out: MIC.
[5] = test system: Escherichia coli K-12 ML 1629; assay: MIC, serial dilution on Mueller Hinton agar; conditions: K12ML1629, Escherichia coli K-12 ML 1629, resistance mechanism APH(3')-I, 37°C, 18 hours
[6] = test system: Staphylococcus aureus Ap01; assay: MIC, serial dilution on Mueller Hinton agar; conditions: Staphylococcus aureus Ap01, resistance mechanism ANT(4'); Mueller Hinton agar, 37°C, 18 hours; read-out: MIC.
Serratia marcescens = assay: MIC, serial dilution on Mueller Hinton agar
[7] = test system: Pseudomonas aeruginosa GN 315; assay: MIC, serial dilution on Mueller Hinton agar
[8] = test system: Corynebacterium bovis 1810; assay: MIC, serial dilution on Mueller Hinton agar; conditions: Corynebacterium bovis 1810; Mueller Hinton agar, 37°C, 18 hours; read-out: MIC.
Providencia sp. Pv 16 = assay: MIC, serial dilution on Mueller Hinton agar
[9] = test system: Escherichia coli JR66/W677; assay: microbe, parasite or virus in culture; conditions: JR66/W677, 18 h
[10] = GN315, Pseudomonas aeruginosa GN 315, resistance mechanism AAC(6'), Mueller Hinton agar, 37°C, 18 hours, read-out: MIC.
[11] = SP.PV16, Providencia sp. Pv 16, resistance mechanism AAC(2'), Mueller Hinton agar, 37°C, 18 hours, read-out: MIC.

With `NC[C@@H]1CC[C@@H](N)[C@@H](O[C@H]2[C@H](O)[C@@H](O[C@H]3O[C@H](CO)[C@@H](O)[C@H](N)[C@H]3O)[C@H](N)C[C@@H]2N)O1` [DKB, 3',4'-dideoxykanamycin B, reference compound] the MIC [1] was 50 µg/mL (≈ 111 µM), the MIC [2] was 50 µg/mL (≈ 111 µM) and the MIC (Mycobacterium 607) was 1.56 µg/mL (≈ 3.45 µM). It also gave an MIC (Escherichia coli K-12) of 0.2 µg/mL (≈ 0.443 µM), an MIC (Escherichia coli K-12 R5) of 50 µg/mL (≈ 111 µM) and an MIC [3] of 0.2 µg/mL (≈ 0.443 µM). For the same compound, the MIC (Bacillus subtilis PCI219) was 0.39 µg/mL (≈ 0.864 µM), the MIC (Proteus rettgeri GN 311) was 0.2 µg/mL (≈ 0.443 µM) and the MIC (Escherichia coli JR225) was 100 µg/mL (≈ 221 µM). It also gave an MIC [4] of 0.39 µg/mL (≈ 0.864 µM).
For `NC[C@H]1O[C@H](O[C@H]2[C@H](F)[C@@H](O[C@H]3O[C@H](CO)[C@@H](O)[C@H](N)[C@H]3O)[C@H](N)C[C@@H]2N)[C@H](N)[C@@H](O)[C@@H]1O` [Compound No. 1, 5-Deoxy-5-fluorokanamycin B], the MIC [1] was over 100 µg/mL, the antibacterial activity ([2]; Escherichia coli K-12 LA290 R55, resistant strain having the enzyme for adenylating the 2"-hydroxyl group of kanamycin B) was “significantly active” and the MIC [2] was 3.12 µg/mL (≈ 6.43 µM). The MIC (Mycobacterium 607) was 1.56 µg/mL (≈ 3.21 µM), the MIC (Escherichia coli K-12) was 0.78 µg/mL (≈ 1.61 µM) and the MIC [5] was over 100 µg/mL. It also gave an MIC (Escherichia coli K-12 R5) of 100 µg/mL (≈ 206 µM), an MIC [6] of 25 µg/mL (≈ 51.5 µM) and an MIC [3] of 1.56 µg/mL (≈ 3.21 µM). For the same compound, the MIC (Bacillus subtilis PCI219) was 0.39 µg/mL (≈ 0.803 µM), the MIC (Serratia marcescens; Mueller Hinton agar, 37°C, 18 hours, read-out: MIC.) was 6.25 µg/mL (≈ 12.9 µM) and the MIC [7, 10] was 100 µg/mL (≈ 206 µM). For the same compound, the MIC [8] was 0.78 µg/mL (≈ 1.61 µM), the MIC (Proteus rettgeri GN 311) was under 0.2 µg/mL and the MIC (Providencia sp. Pv 16; Providencia, SP.PV16, 18 h) was 3.12 µg/mL (≈ 6.43 µM). The antibacterial activity (Providencia sp. Pv 16; Providensia Pv 16, resistant strain having the enzyme for acetylating the 2'-amino group of kanamycin B) was “significantly active”, the antibacterial activity (Escherichia coli JR225; Escherichia coli JR 225, resistant strain having the enzyme for acetylating the 3-hydroxyl group of kanamycin B) was “significantly active” and the MIC (Escherichia coli JR225) was 0.78 µg/mL (≈ 1.61 µM). It also gave an MIC [4] of 0.39 µg/mL (≈ 0.803 µM) and an MIC [9] of over 100 µg/mL.
Compound `NC[C@H](O)C(=O)N[C@@H]1C[C@H](N)[C@@H](O[C@H]2O[C@H](CN)[C@@H](O)[C@H](O)[C@H]2N)[C@H](F)[C@H]1O[C@H]1O[C@H](CO)[C@@H](O)[C@H](N)[C@H]1O` [Compound No. 5, 1-N-(3-Amino-2-(S)-hydroxypropionyl)-5-deoxy-5-fluorokanamycin B] has an MIC [1] of 3.12 µg/mL (≈ 5.45 µM), an MIC [2] of 1.56 µg/mL (≈ 2.72 µM) and an MIC (Mycobacterium 607) of 6.25 µg/mL (≈ 10.9 µM). The MIC (Escherichia coli K-12) was under 0.2 µg/mL, the MIC [5] was 0.78 µg/mL (≈ 1.36 µM) and the MIC (Escherichia coli K-12 R5) was 12.5 µg/mL (≈ 21.8 µM). For the same compound, the MIC [6] was 6.25 µg/mL (≈ 10.9 µM), the MIC [3] was 0.2 µg/mL (≈ 0.349 µM) and the MIC (Bacillus subtilis PCI219) was 0.78 µg/mL (≈ 1.36 µM). For the same compound, the MIC (Serratia marcescens; 18 h) was 1.56 µg/mL (≈ 2.72 µM), the MIC [7, 10] was 6.25 µg/mL (≈ 10.9 µM) and the MIC [8] was under 0.2 µg/mL. For the same compound, the MIC (Proteus rettgeri GN 311) was under 0.2 µg/mL, the MIC (Providencia sp. Pv 16; [11]) was 0.78 µg/mL (≈ 1.36 µM) and the MIC (Escherichia coli JR225) was 0.2 µg/mL (≈ 0.349 µM). It also gave an MIC [4] of 0.39 µg/mL (≈ 0.681 µM) and an MIC [9] of 1.56 µg/mL (≈ 2.72 µM).
`NC[C@@H]1CC[C@@H](N)[C@@H](O[C@H]2[C@H](F)[C@@H](O[C@H]3O[C@H](CO)[C@@H](O)[C@H](N)[C@H]3O)[C@H](NC(=O)[C@@H](O)CN)C[C@@H]2N)O1` [Compound No. 12, 1-N-(3-Amino-2-(S)-hydroxypropionyl)-5,3',4'-trideoxy-5-fluorokanamycin B] was tested, and the MIC [1] was 1.56 µg/mL (≈ 2.89 µM), the MIC [2] was 1.56 µg/mL (≈ 2.89 µM) and the MIC (Mycobacterium 607) was 0.78 µg/mL (≈ 1.44 µM). It also gave an MIC (Escherichia coli K-12) of 0.2 µg/mL (≈ 0.37 µM), an MIC [5] of 0.78 µg/mL (≈ 1.44 µM) and an MIC (Escherichia coli K-12 R5) of 50 µg/mL (≈ 92.5 µM). For the same compound, the MIC [6] was 0.78 µg/mL (≈ 1.44 µM), the MIC [3] was 0.39 µg/mL (≈ 0.721 µM) and the MIC (Bacillus subtilis PCI219) was 0.39 µg/mL (≈ 0.721 µM). For the same compound, the MIC (Serratia marcescens; 18 h) was 1.56 µg/mL (≈ 2.89 µM), the MIC [7, 10] was 6.25 µg/mL (≈ 11.6 µM) and the MIC [8] was 0.2 µg/mL (≈ 0.37 µM). For the same compound, the MIC (Proteus rettgeri GN 311) was under 0.2 µg/mL, the MIC (Providencia sp. Pv 16; Providencia, SP.PV16, 18 h) was 1.56 µg/mL (≈ 2.89 µM) and the MIC (Escherichia coli JR225) was 0.39 µg/mL (≈ 0.721 µM). It also gave an MIC [4] of 0.39 µg/mL (≈ 0.721 µM) and an MIC [9] of 1.56 µg/mL (≈ 2.89 µM).
Work on `NC[C@H](O)C(=O)N[C@@H]1C[C@H](N)[C@@H](O[C@H]2O[C@H](CN)[C@@H](O)C[C@H]2N)[C@H](F)[C@H]1O[C@H]1O[C@H](CO)[C@@H](O)[C@H](N)[C@H]1O` [Compound No. 8, 1-N-(3-Amino-2-(S)-hydroxypropionyl)-5,3'-dideoxy-5-fluorokanamycin B] yielded an MIC [1] of 1.56 µg/mL (≈ 2.8 µM), an MIC [2] of 1.56 µg/mL (≈ 2.8 µM) and an MIC (Mycobacterium 607) of 0.78 µg/mL (≈ 1.4 µM). The MIC (Escherichia coli K-12) was 0.2 µg/mL (≈ 0.359 µM), the MIC [5] was 0.78 µg/mL (≈ 1.4 µM) and the MIC (Escherichia coli K-12 R5) was 6.25 µg/mL (≈ 11.2 µM). The MIC [6] was 0.78 µg/mL (≈ 1.4 µM), the MIC [3] was 0.39 µg/mL (≈ 0.701 µM) and the MIC (Bacillus subtilis PCI219) was 0.2 µg/mL (≈ 0.359 µM). The MIC (Serratia marcescens; 18 h) was 3.12 µg/mL (≈ 5.61 µM), the MIC ([7]; Pseudomonas aeruginosa, GN315, 18 h) was 6.25 µg/mL (≈ 11.2 µM) and the MIC [8] was under 0.2 µg/mL. The MIC (Proteus rettgeri GN 311) was 0.39 µg/mL (≈ 0.701 µM), the MIC (Providencia sp. Pv 16; [11]) was 0.78 µg/mL (≈ 1.4 µM) and the MIC (Escherichia coli JR225) was 0.78 µg/mL (≈ 1.4 µM). It also gave an MIC [4] of 0.39 µg/mL (≈ 0.701 µM) and an MIC [9] of 0.78 µg/mL (≈ 1.4 µM).
